Our source for the inhibition and IC50 values is patent US7064120B2, “Tricyclic pyridyl carboxamides and derivatives thereof tocolytic oxytocin receptor antagonists” (Wyeth, priority 2001, dated 2006).

The structures appear in SMILES notation.

The target in one experiment is T1, human oxytocin receptor (Homo sapiens, UniProt P30559).
T1 construct: host or cells: CHO cells, stably transfected (pcDNA3.1 vector)
T1 sequence (P30559 1-389): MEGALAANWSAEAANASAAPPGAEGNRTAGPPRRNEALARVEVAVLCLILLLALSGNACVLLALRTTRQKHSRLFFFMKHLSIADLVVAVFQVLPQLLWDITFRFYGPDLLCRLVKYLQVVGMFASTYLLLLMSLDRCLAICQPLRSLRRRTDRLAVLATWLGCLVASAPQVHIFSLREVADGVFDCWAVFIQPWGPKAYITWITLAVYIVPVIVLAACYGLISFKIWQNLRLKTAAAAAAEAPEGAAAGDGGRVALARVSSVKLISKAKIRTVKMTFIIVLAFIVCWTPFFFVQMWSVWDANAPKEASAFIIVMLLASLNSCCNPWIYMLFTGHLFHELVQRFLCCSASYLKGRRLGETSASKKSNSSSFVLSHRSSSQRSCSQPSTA
Briefly: Oxytocin binding in CHO cell membranes expressing human oxytocin receptors ([3H]oxytocin radioligand binding). As to conditions: 100 nM, read-out: OT % inhibition @ 100 nM. The procedure, abridged: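 Values are % inhibition at one concentration or nM IC50 from [3H]oxytocin displacement. Membranes from human oxytocin receptor CHO cells, 25–50 μg protein/well, 60 min at room temperature, pH 7.4 Tris buffer with protease inhibitors; bound label by filtration and scintillation counting.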
Take `COc1ccccc1-c1ccc(C(=O)N2Cc3ccc(C(=O)N(C)CCc4ccccn4)n3Cc3ccccc32)cc1C` [Example 65, 10-[(2′-Methoxy-2-methyl-[1,1′-biphenyl]-4-yl)carbonyl]-N-methyl-N-[2-(2-pyridinyl)ethyl]-10,11-dihydro-5H-pyrrolo[2,1-c][1,4]benzodiazepine-3-carboxamide]: the inhibition at 0.1 µM amounted to 95%.
Turning to `Cc1ccccc1-c1ccc(C(=O)N2Cc3ccc(C(=O)N(C)CCc4ccccn4)n3Cc3ccccc32)cc1C` [Example 66, 10-[(2,2′-Dimethyl-[1,1′-biphenyl]-4-yl)carbonyl]-N-methyl-N-[2-(2-pyridinyl)ethyl]-10,11-dihydro-5H-pyrrolo[2,1-c][1,4]benzodiazepine-3-carboxamide], the inhibition at 0.1 µM was 92%.
The same measure, in the same setting: with `COc1ccccc1-c1ccc(C(=O)N2Cc3ccc(C(=O)N(C)CCc4ccccn4)n3Cc3ccccc32)cc1` [Example 67, 10-[(2′-Methoxy-[1,1′-biphenyl]-4-yl)carbonyl]-N-methyl-N-[2-(2-pyridinyl)ethyl]-10,11-dihydro-5H-pyrrolo[2,1-c][1,4]benzodiazepine-3-carboxamide] the figure was 91%; with `Cc1ccccc1-c1ccc(C(=O)N2Cc3ccc(C(=O)N(C)CCc4ccccn4)n3Cc3ccccc32)cc1` [Example 68, N-Methyl-10-[(2′-methyl-[1,1′-biphenyl]-4-yl)carbonyl]-N-[2-(2-pyridinyl)ethyl]-10,11-dihydro-5H-pyrrolo[2,1-c][1,4]benzodiazepine-3-carboxamide], 93%.
The same measure, in the same setting: to `COc1cc(C(=O)N2Cc3ccc(C(=O)N(C)CCc4ccccn4)n3Cc3ccccc32)ccc1-c1ccccc1C` [Example 69, 10-[(2-Methoxy-2′-methyl-[1,1′-biphenyl]-4-yl)carbonyl]-N-methyl-N-[2-(2-pyridinyl)ethyl]-10,11-dihydro-5H-pyrrolo[2,1-c][1,4]benzodiazepine-3-carboxamide] belongs 94%.
On the same count and under the same terms, to `COc1cccc(-c2cc(OC)c(C(=O)N3Cc4ccc(C(=O)N(C)CCc5ccccn5)n4Cc4ccccc43)cc2Cl)c1` [Example 70, 10-[(6-Chloro-3,3′-dimethoxy-[1,1′-biphenyl]-4-yl)carbonyl]-N-methyl-N-[2-(2-pyridinyl)ethyl]-10,11-dihydro-5H-pyrrolo[2,1-c][1,4]benzodiazepine-3-carboxamide] belongs 77%; to `COc1cc(C(=O)N2Cc3ccc(C(=O)N(C)CCc4ccccn4)n3Cc3ccccc32)ccc1-c1cccc2ccccc12` [Example 71, 10-[3-Methoxy-4-(naphthalen-1-yl)benzoyl]-N-methyl-N-[2-(2-pyridinyl)ethyl]-10,11-dihydro-5H-pyrrolo[2,1-c][1,4]benzodiazepine-3-carboxamide], 81%.
In the case of `COc1cccc(-c2ccc(C(=O)N3Cc4ccc(C(=O)N(C)CCc5ccccn5)n4Cc4ccccc43)cc2OC)c1` [Example 72, 10-[(2,3′-Dimethoxy-[1,1′-biphenyl]-4-yl)carbonyl]-N-methyl-N-[2-(2-pyridinyl)ethyl]-10,11-dihydro-5H-pyrrolo[2,1-c][1,4]benzodiazepine-3-carboxamide], the inhibition at 0.1 µM was 89%.
`CN(CCc1ccccn1)C(=O)c1ccc2n1Cc1ccccc1N(C(=O)c1ccc(-c3cccc4ccccc34)cc1Cl)C2` [Example 73, 10-[2-Chloro-4-(naphthalen-1-yl)benzoyl]-N-methyl-N-[2-(2-pyridinyl)ethyl]-10,11-dihydro-5H-pyrrolo[2,1-c][1,4]benzodiazepine-3-carboxamide]: the inhibition at 0.1 µM was 32%.
Still for that read-out and setting: with `Cc1cc(C(=O)N2Cc3ccc(C(=O)N(C)CCc4ccccn4)n3Cc3ccccc32)ccc1-c1ccccc1C(F)(F)F` [Example 74, N-Methyl-10-{[2-methyl-2′-trifluoromethyl-[1,1′-biphenyl]-4-yl]carbonyl}-N-[2-(2-pyridinyl)ethyl]-10,11-dihydro-5H-pyrrolo[2,1-c][1,4]benzodiazepine-3-carboxamide] the figure was 91%.
Same read-out and setting: to `COc1ccccc1-c1ccc(C(=O)N2Cc3ccc(C(=O)N4CCN(c5ccccn5)CC4)n3Cc3ccccc32)cc1C` [Example 75, {10-[(2′-Methoxy-2-methyl-[1,1′-biphenyl]-4-yl)carbonyl]-10,11-dihydro-5H-pyrrolo[2,1-c][1,4]benzodiazepin-3-yl}[4-(2-pyridinyl)-1-piperazinyl]methanone] belongs 62%.
Still for that read-out and setting: to `Cc1ccccc1-c1ccc(C(=O)N2Cc3ccc(C(=O)N4CCN(c5ccccn5)CC4)n3Cc3ccccc32)cc1C` [Example 76, {10-[(2,2′-Dimethyl-[1,1′-biphenyl]-4-yl)carbonyl]-10,11-dihydro-5H-pyrrolo[2,1-c][1,4]benzodiazepin-3-yl}[4-(2-pyridinyl)-1-piperazinyl]methanone] belongs 62%; to `COc1cccc(-c2ccc(C(=O)N3Cc4ccc(C(=O)N5CCN(c6ccccn6)CC5)n4Cc4ccccc43)cc2C)c1` [Example 77, {10-[(3′-Methoxy-2-methyl-[1,1′-biphenyl]-4-yl)carbonyl]-10,11-dihydro-5H-pyrrolo[2,1-c][1,4]benzodiazepin-3-yl}[4-(2-pyridinyl)-1-piperazinyl]methanone], 21%.

Still in this experiment, the particulars now being: value in parentheses, read-out: OT (IC50).
Take `Cc1cc(C(=O)N2Cc3ccc(C(=O)N4CCN(c5ccncc5)CC4)n3Cc3ccccc32)ccc1-c1ccccc1C(F)(F)F` [Example 1]: the IC50 came to 11.2 nM.
Regarding `Cc1cc(C(=O)N2Cc3ccc(C(=O)N4CCN(Cc5ccc[n+]([O-])c5)CC4)n3Cc3ccccc32)ccc1-c1ccccc1C(F)(F)F` [Example 2, 10-{[2-Methyl-2′-trifluoromethyl-[1,1′-biphenyl]-4-yl]carbonyl}-3-({4-[(1-oxidopyridin-3-yl)methyl]piperazin-1-yl}carbonyl)-10,11-dihydro-5H-pyrrolo[2,1-c][1,4]benzodiazepine], the half-inhibitory concentration (IC50) is 16.8 nM.
On the same count and under the same terms, to `Cc1cc(C(=O)N2Cc3ccc(C(=O)N4CCN(Cc5ccc[n+]([O-])c5C)CC4)n3Cc3ccccc32)ccc1-c1ccccc1C(F)(F)F` [Example 3, 3-({4-[(2-Methyl-1-oxidopyridin-3-yl)methyl]piperazin-1-yl}carbonyl)-10-{[2-methyl-2′-trifluoromethyl-[1,1′-biphenyl]-4-yl]carbonyl}-10,11-dihydro-5H-pyrrolo[2,1-c][1,4]benzodiazepine] belongs 45 nM; to `Cc1cc(C(=O)N2Cc3ccc(C(=O)N(C)Cc4ccc[n+]([O-])c4)n3Cc3ccccc32)ccc1-c1ccccc1C(F)(F)F` [Example 4, N-Methyl-10-{[2-methyl-2′-trifluoromethyl-[1,1′-biphenyl]-4-yl]carbonyl}-N-[(1-oxidopyridin-3-yl)methyl]-10,11-dihydro-5H-pyrrolo[2,1-c][1,4]benzodiazepine-3-carboxamide], 2.44 nM.
Same read-out and setting: with `COc1cc(-c2ccccc2C(F)(F)F)c(Cl)cc1C(=O)N1Cc2ccc(C(=O)N(C)Cc3cccnc3)n2Cc2ccccc21` [Example 5, 10-{[6-Chloro-3-methoxy-2′-trifluoromethyl-[1,1′-biphenyl]-4-yl]carbonyl}-N-methyl-N-(pyridin-3-ylmethyl)-10,11-dihydro-5H-pyrrolo[2,1-c][1,4]benzodiazepine-3-carboxamide] the figure was 10.2 nM; with `COc1cc(-c2ccccc2Cl)c(Cl)cc1C(=O)N1Cc2ccc(C(=O)N(C)Cc3cccnc3)n2Cc2ccccc21` [Example 6, 10-[(2′,6-Dichloro-3-methoxy-[1,1′-biphenyl]-4-yl)carbonyl]-N-methyl-N-(pyridin-3-ylmethyl)-10,11-dihydro-5H-pyrrolo[2,1-c][1,4]benzodiazepine-3-carboxamide], 7.51 nM; with `COc1cc(C(=O)N2Cc3ccc(C(=O)N(C)Cc4cccnc4)n3Cc3ccccc32)ccc1-c1ccccc1C(F)(F)F` [Example 7, 10-{[2-Methoxy-2′-trifluoromethyl-[1,1′-biphenyl]-4-yl]carbonyl}-N-methyl-N-(pyridin-3-ylmethyl)-10,11-dihydro-5H-pyrrolo[2,1-c][1,4]benzodiazepine-3-carboxamide], 3.34 nM.
As for `COc1cc(C(=O)N2Cc3ccc(C(=O)N(C)Cc4ccc[n+]([O-])c4)n3Cc3ccccc32)ccc1-c1ccccc1C(F)(F)F` [Example 8, 10-{[2-Methoxy-2′-trifluoromethyl-[1,1′-biphenyl]-4-yl]carbonyl}-N-methyl-N-(1-oxo-pyridin-3-ylmethyl)-10,11-dihydro-5H-pyrrolo[2,1-c][1,4]benzodiazepine-3-carboxamide], the half-inhibitory concentration (IC50) came out at 4.65 nM.
As to `COc1cccc(-c2ccc(C(=O)N3Cc4ccc(C(=O)N(C)CCc5ccccn5)n4Cc4ccccc43)cc2C)c1` [Example 62, 10-[(3′-Methoxy-2-methyl-[1,1′-biphenyl]-4-yl)carbonyl]-N-methyl-N-[2-(2-pyridinyl)ethyl]-10,11-dihydro-5H-pyrrolo[2,1-c][1,4]benzodiazepine-3-carboxamide], the IC50 turned out to be 10.7 nM.
Still for that read-out and setting: with `COc1cc(-c2ccccc2C)c(Cl)cc1C(=O)N1Cc2ccc(C(=O)N(C)CCc3ccccn3)n2Cc2ccccc21` [Example 63, 10-[(6-Chloro-3-methoxy-2′-methyl-[1,1′-biphenyl]-4-yl)carbonyl]-N-methyl-N-[2-(2-pyridinyl)ethyl]-10,11-dihydro-5H-pyrrolo[2,1-c][1,4]benzodiazepine-3-carboxamide] the figure was 5.08 nM.
